Results as given in patent publication US10286032B2, “Pro-angiogenic fragments of prominin-1 and uses thereof” (Children's Medical Center Corporation, priority 2010, dated 2019).

Key:
[1] = test system: endothelial cells; assay: I125-VEGF binding to endothelial cells in the presence of peptide; assay type: cell-based
Experimental: (§1) 10000 cells were incubated in binding buffer containing 20 mM Hepes, 0.1% BSA and I^125-VEGF (12 ng/ml) for 3 h on ice.
(§2) In order to characterize the effect of the peptides on VEGF binding to endothelial and melanoma cells, the cells were incubated with various peptides (720 μg/ml) in the presence of I^125-VEGF (12 ng/ml) (FIG. 2). Peptide #237 increased VEGF binding to endothelial as well to melanoma cells. 10000 cells were incubated in binding buffer containing 20 mM Hepes, 0.1% BSA and I^125-VEGF (12 ng/ml) for 3 h on ice. Following 3 washings, the radioactive levels were determined by gamma counter. An increase of more than 25 times in I^125-VEGF binding was observed when peptide #237 was added to both kinds of cells. The other prominin-1 peptides examined had no effect on VEGF binding to endothelial cells.
Each of these peptides were tested for VEGF binding to endothelial cells and compared to peptide #237 at varying dilutions. The results are indicated herein in FIG. 7.
The inventors also investigated which amino acid residues in peptide #237 are important for the various angiogenic and VEGF related binding activity described herein. To achieve this, the inventors singly changed each of the 12 amino acid residues in peptide #237 to alanine and performed experiments examining the effect of the alanine substitution at various positions on endothelial cell binding to VEGF. A total of 12 alanine substituted peptides were made and tested: Ala-1, Ala-2, Ala-3, Ala-4, Ala-5, Ala-6, Ala-7, Ala-8, Ala-9, Ala-10, Ala-11, Ala-12, (SEQ. ID. NOS. 38-41, 3, 11, 42-47) wherein the number indicate the position where the alanine substitution occurred. In addition, a “flip #237” peptide having the sequence AAVVTTTQRQVRD (SEQ. ID. NO. 22) was also made and studied.

[2] = test system: ear wound; assay: ear punch wound healing model; assay type: in vivo, mouse; conditions: for wound closure versus control (peptide #237): intraperitoneal treatment, C57BL mouse
[3] = test system: B16-F10 melanoma cells; assay: I125-VEGF binding to melanoma cells in the presence of peptide; assay type: cell-based; conditions: peptide 720 μg/ml, I125-VEGF 12 ng/ml, 3 h on ice
Experimental: as §1, §2

[4] = test system: ischemic hind limb blood flow; assay: hind limb ischemia model, local injection or pump (Example 11); assay type: in vivo, mouse; conditions: after 48 h
Experimental: FIG. 10A are laser doppler images showing the effects of direct injection of either saline or peptide #237 to the ischemic site (800 μg) in a mouse hind limb ischemia model. Mice were ligated in both of their femoral arteries to simulate hind limb ischemia. The blood flow in mice was analyzed by machine for each mouse before and immediately after the procedure to evaluate if the femoral was ligated properly. (Note that amino acid 12 of SEQ. ID. NO: 1 is alanine; this amino acid was substituted with […] in the Ala-12 substitution variant.)
FIG. 10B are laser doppler images showing the effects of injection by pumps of either the saline or peptide #237 to the ischemic site (800 μg) in a mouse hind limb ischemia model. Just the left femoral artery was ligated to simulate hind limb ischemia. Mice from group B were treated systemically by pumps that were implanted to the mouse's back one day prior to the procedure. […] The blood flow was analyzed by machine for each mouse before and immediately after the procedure to evaluate if the femoral was ligated properly. […]
The angiogenic effects of peptide #237 were investigated using the mouse hind limb ischemia model. […] The blood flow was analyzed by Laser Doppler perfusion imagery machine for each mouse before and immediately after the procedure to evaluate if the femoral was ligated properly. […]

[5] = test system: cornea neovascularization; assay: corneal micropocket assay with VEGF pellet; assay type: in vivo, mouse; conditions: pellet 160 ng VEGF 165 + 1.3 ug #237; 5 days
Experimental: Vigorous vessel in-growth from the limbus at 5 days was recorded as a positive response.
In order to evaluate the modulating effect of peptide #237 on the angiogenesis process, a corneal micropocket assay was performed. Two kinds of pellets were created, both containing 160 ng carrier-free recombinant human VEGF 165 (R&D Systems, Minneapolis, Minn.), one of which contains 1.3 ug of #237 peptide. The pellets were implanted into micropockets created in the cornea of two groups of anesthetized mice (n=4). Through the use of standardized slow-release pellets, a predictable angiogenic response is generated over the course of 5 days and then quantified. The area of neovascularization was calculated as vessel area, which is calculated as the product of vessel length measured from the limbus and clock hours around the cornea, using the following equation: vessel area (mm^2)=[clock hours×vessel length (mm)×0.2 mm]. […] The in vivo experiment confirms that the peptide stimulates cell proliferation, and is therefore a good candidate to induce angiogenesis.

[6] = test system: ear wound neovascularization; assay: ear wound neovascularization model; assay type: in vivo, nude mouse; conditions: matrigel containing 180 μg peptide daily for 5 days; 2.25 mm punch; versus plain matrigel
Experimental: Microvascular in-growth into damaged tissue is an essential component of the normal healing process. In fact, wound therapy is often aimed at promoting neovascularization. The model consists of wounding the dorsal aspect of the ear of a nude mouse. A circular punch was used to create a standardized wound on a nude mouse ear. Constant diameter of wound is given by the size of the punch (2.25 mm), and the ears were treated daily with plain matrigel (FIG. 6A) or matrigel containing peptide #237 (180 μg) (FIG. 6B) for 5 days. […] In order to evaluate the wound neovascularization, the mice were inoculated by dextran-FITC which specifically labeled the endothelial cells, immediately after anesthetizing them.

[7] = test system: endothelial cells; assay: Matrigel assay of endothelial cell migration in vivo (FACS of matrigel liberated cells); set-up: species or system C57bl mice; conditions: day 6; for endothelial cells among matrigel liberated cells (FACS, CD31): Matrigel with 500 ng VEGF, with or without 180 μg #237
Experimental: On day 6, animals were sacrificed and fluorescence-activated cell sorting (FACS) analysis was used for determination of the matrigel liberated cells. In order to distinguish the endothelial cells from hematopoietic cells, the cells were incubated with two antibodies CD31-PE and CD45-APC which are specific to endothelial cells and hematopoietic cells respectively.

[8] = test system: ischemic hind limb blood flow; assay: hind limb ischemia model, intraperitoneal administration (Example 12); assay type: in vivo, mouse; conditions: for limb perfusion: intraperitoneally immediately following femoral artery occlusion, within three to six days
Experimental: Mice were ligated in one of their femoral arteries (the […]) to simulate hind limb ischemia. The blood flow was analyzed by machine for each mouse before and immediately after the procedure to evaluate if the femoral was ligated properly. Blood flow was compared with the non-operated leg by a laser Doppler imager. […] The ischemic limb is seen as the limb on left side in the laser Doppler images.
Representative evaluation of the ischemic (left side of each image) and non-ischemic (right side of each image) hind limbs, immediately after, and on days 4 and 14 after surgery. In FIG. 11, the white areas indicate normal perfusion with normal blood circulation and black areas indicate no blood flow in the ischemic left hind limb. […] Dark shaded areas within the white areas located at the distal ends of the limbs indicate […].
The blood flow of the ischemic hind limb is expressed as the ratio between the perfusion of the ischemic limb and the uninjured limb in FIG. 12.

## DAVQRQTTTVVA [Ala-2]
[1]
  VEGF binding to endothelial cells over control levels (absence of any peptide): promote VEGF binding to endothelial cells over control levels

## DRAQRQTTTVVA [Ala-3]
[1]
  VEGF binding to endothelial cells over control levels (absence of any peptide): promote VEGF binding to endothelial cells over control levels

## DRVARQTTTVVA [Ala-4]
[1]
  VEGF binding to endothelial cells over control levels (absence of any peptide): promote VEGF binding to endothelial cells over control levels

## DRVQAQTTTVVA [Ala-5]
[1]
  VEGF binding to endothelial cells over control levels (absence of any peptide): promote VEGF binding to endothelial cells over control levels
[1]; alanine substitution screen
  ability of endothelial cells to bind VEGF compared to original #237: more than twice

## DRVQMQTTTVVA [#237-M]
[1]
  VEGF binding to endothelial cells over control levels (absence of any peptide): promote VEGF binding to endothelial cells over control levels
[2]
  wound closure versus control (peptide #237): significantly more wound closure

## DRVQQQTTTVVA [#237-Q]
[1]
  VEGF binding to endothelial cells over control levels (absence of any peptide): promote VEGF binding to endothelial cells over control levels
[2]
  wound closure versus control (peptide #237): significantly more wound closure

## DRVQRATTTVVA [Ala-6]
[1]
  VEGF binding to endothelial cells over control levels (absence of any peptide): promote VEGF binding to endothelial cells over control levels

## DRVQRQATTVVA [Ala-7]
[1]
  VEGF binding to endothelial cells over control levels (absence of any peptide): promote VEGF binding to endothelial cells over control levels

## DRVQRQTTTVVA (listed as Homo sapiens) [#237]
[3]
  increase in I125-VEGF binding: more than 25 times
[1]
  VEGF binding to endothelial cells over control levels (absence of any peptide): promote VEGF binding to endothelial cells over control levels
[1]; endothelial cells, peptide 720 μg/ml, I125-VEGF 12 ng/ml, 3 h on ice
  increase in I125-VEGF binding: more than 25 times
[4]; local injection to the ischemic site (800 ug)
  recovery of the blood flow in the ischemic site: complete recovery of the blood flow
[4]; slow release via pump 0.5 ug/hour
  recovery of the blood flow in the ischemic site: complete recovery of the blood flow
[5]
  increase in vessel density versus pellet without peptide: 53%
[6]
  neovascularization around the ear wound site: significantly increased the neovascularization
[7]; 180 ug #237 added to the VEGF
  endothelial cells relative to VEGF alone: six times more
[7]
  endothelial cells among matrigel liberated cells (FACS, CD31): 0.42%
[2]; MATRIGEL containing peptide daily for 14 days, day 14, 1 mm wound
  wound area versus untreated mice: significantly smaller
[8]; days 4 and 14 after surgery
  blood flow recovery compared to saline treated mice (laser Doppler images): increased blood flow recovery
[8]
  limb perfusion: significantly improves limb perfusion

## DRVQRQTTTVVG [Ala-12, glycine substitution at position 12, which is naturally alanine]
[1]
  VEGF binding to endothelial cells over control levels (absence of any peptide): promote VEGF binding to endothelial cells over control levels

## DRVQVQTTTVVA [#237-V]
[1]
  VEGF binding to endothelial cells over control levels (absence of any peptide): promote VEGF binding to endothelial cells over control levels
[2]
  wound closure versus control (peptide #237): significantly more wound closure
[8]
  limb perfusion: significantly improves limb perfusion

## RVQRQTTTVVAG
[1]
  VEGF binding to endothelial cells over control levels (absence of any peptide): promote VEGF binding to endothelial cells over control levels

## VEGF
[7]
  endothelial cells among matrigel liberated cells (FACS, CD31): 0.07%

## VQRQTTTVVAGI
[1]
  VEGF binding to endothelial cells over control levels (absence of any peptide): promote VEGF binding to endothelial cells over control levels
